The source of these data is PubChem BioAssay (NCI).

Molecules are shown by their SMILES. “And” between values parts separate entries of the source, which are not always exact repeats. Equal values may be shown once.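 Grown in 96-well plates, cells were treated for 48 hours with each compound at five concentrations. Insufficient inhibition: endpoint recorded as highest concentration tested. At the GI50, growth is halved. TGI marks complete inhibition of growth.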

Some test systems named below: A549 NSCLC; RXF 393 renal; SW-620 colon; OVCAR-5 ovarian; KM12 colon; SF-268 CNS; HOP-92 NSCLC; COLO 205 colon; SF-295 CNS.
Holding throughout (assay): DTP human tumour cell line panel, 48 h

On to `Cc1ccc2nc(NC(=O)C(=O)C(C(=O)c3ccc4ccccc4c3)C3OC(=O)c4ccccc43)sc2c1` (configuration not stated), for which the TGI – broadly, the concentration giving total growth inhibition – in the assay with A549 NSCLC worked out at 53.8 µM; in the assay with RXF 393 renal, 8.79 µM; in the assay on SW-620 colon, 22.9 µM; in the assay on OVCAR-5 ovarian, 23.9 µM; with KM12 colon, 37.4 µM; in the assay with SF-268 CNS, 31.3 µM. Besides, the total growth inhibition concentration (TGI) with HOP-92 NSCLC turned out to be 15.2 µM; in the assay with COLO 205 colon, 34.6 µM; in the assay with SF-295 CNS it was 21 µM.
For `O=S(=O)(C1=CC(S(=O)(=O)c2ccccc2)COC1)c1ccccc1` (configuration not stated), the concentration for total growth inhibition (TGI) with A549 NSCLC, in the assay with RXF 393 renal, in the assay with SW-620 colon, in the assay on KM12 colon, in the assay on SF-268 CNS and in the assay with COLO 205 colon was above 100 µM throughout. Moreover, in the assay on SF-295 CNS, the TGI was above 100 µM.
`c1ccc2c(c1)[nH]c1cnc3c4ncccc4[nH]c3c12`: the TGI in the assay with A549 NSCLC, in the assay with RXF 393 renal, with SW-620 colon, in the assay with OVCAR-5 ovarian, in the assay with KM12 colon and in the assay on SF-268 CNS was above 100 µM in each case. For the same molecule, the results for the TGI in the assay with HOP-92 NSCLC, in the assay with COLO 205 colon and with SF-295 CNS were 79.3 µM, above 100 µM and above 100 µM, respectively.
Turning to `CC(C)N(C(=O)C12C3C4C1C1C2C3C41C(=O)C(C)(C)C)C(C)C` (configuration not stated), the total growth inhibition concentration (TGI) in the assay with A549 NSCLC, with SW-620 colon, in the assay with OVCAR-5 ovarian, in the assay with KM12 colon, in the assay with SF-268 CNS and in the assay with COLO 205 colon was above 100 µM throughout. Further, the TGI with SF-295 CNS was above 100 µM.
With `Nc1cn(C2OC(CC(c3ccccc3)(c3ccccc3)c3ccccc3)C(O)C2O)c(=O)[nH]c1=O` (configuration not stated), the TGI in the assay on A549 NSCLC was 83.1 µM; with RXF 393 renal, 21.4 µM; in the assay with SW-620 colon, 28 µM; in the assay with OVCAR-5 ovarian, above 100 µM; with KM12 colon, above 100 µM; in the assay with SF-268 CNS it was above 100 µM. Moreover, the results for the total growth inhibition concentration (TGI) in the assay on HOP-92 NSCLC, with COLO 205 colon and with SF-295 CNS were 39 µM, 30.3 µM and 99.7 µM, respectively.
Turning to `CC[C@@]1(O)C(=O)OCc2c1cc1n(c2=O)Cc2cc3cc(Cl)ccc3nc2-1`, the GI50 (as a rule, the concentration giving 50% growth inhibition) in the assay on A549 NSCLC was 0.00656 µM; in the assay with RXF 393 renal, 0.0106 µM; in the assay with OVCAR-5 ovarian, 0.0635 µM and 0.0706 µM; in the assay on KM12 colon it was 0.0485 µM and 0.127 µM; with SF-268 CNS it was 0.00403 µM; with HOP-92 NSCLC it was 0.0256 µM and 0.0415 µM. Further, the GI50 with COLO 205 colon was 0.02 µM and 0.0458 µM; with SF-295 CNS, below 0.001 µM. Moreover, the concentration for total growth inhibition (TGI) in the assay with A549 NSCLC was 1.42 µM and 1.21 µM; in the assay with RXF 393 renal, 0.137 µM; in the assay with SW-620 colon, 2.37 µM and 5.23 µM; in the assay on OVCAR-5 ovarian it was 0.363 µM and 0.318 µM; in the assay with KM12 colon, 0.195 µM and 0.446 µM; in the assay with HOP-92 NSCLC it was 1.32 µM and 0.709 µM. For the same molecule, the TGI in the assay on COLO 205 colon is 1.41 µM and 1.47 µM; with SF-295 CNS, 0.0893 µM.
Turning to `O=C1C=CC2(CCCCCCC2=O)CC1` (configuration not stated), the TGI with A549 NSCLC, with RXF 393 renal, in the assay on SW-620 colon, in the assay on OVCAR-5 ovarian, in the assay on KM12 colon and with SF-268 CNS was above 100 µM in each case. The total growth inhibition concentration (TGI) with HOP-92 NSCLC, with COLO 205 colon and in the assay on SF-295 CNS was above 100 µM throughout.
For `NC1=NN(c2ccccc2)C(=O)C1C(=O)C(=O)Nc1ccc(Cl)cc1` (configuration not stated), the TGI in the assay on A549 NSCLC, in the assay with RXF 393 renal, in the assay on SW-620 colon, with OVCAR-5 ovarian, in the assay with KM12 colon and in the assay with SF-268 CNS was above 100 µM in each case. The TGI in the assay with HOP-92 NSCLC, with COLO 205 colon and in the assay with SF-295 CNS was above 100 µM throughout.
With `Cc1noc2cccc(O)c12`, the TGI in the assay with A549 NSCLC, in the assay with RXF 393 renal, in the assay on SW-620 colon, with OVCAR-5 ovarian, in the assay with KM12 colon and with SF-268 CNS was above 100 µM each time. Besides, the total growth inhibition concentration (TGI) in the assay on HOP-92 NSCLC, in the assay on COLO 205 colon and in the assay on SF-295 CNS was above 100 µM in each case.
Consider `CC(=O)OC1C[C@H]2C(OC(=O)c3ccccc3)C3C4(OC(C)=O)COC4C[C@H](OC(C)=O)[C@@]3(C)C(OC(C)=O)[C@H](OC(C)=O)C(=C1C)C2(C)C` (some centres not stated), for which the total growth inhibition concentration (TGI) in the assay with A549 NSCLC was above 100 µM; in the assay with RXF 393 renal it was 49.3 µM; in the assay with SW-620 colon, above 100 µM; in the assay on OVCAR-5 ovarian it was above 100 µM; with KM12 colon it was above 100 µM; in the assay on SF-268 CNS it was above 100 µM. Moreover, the concentration for total growth inhibition (TGI) with COLO 205 colon and in the assay with SF-295 CNS was above 100 µM in each case.
Regarding `C[C@H]1CCC/C=C/C2CC(OC(=O)CN(C)C)CC2C(OC(=O)CN(C)C)/C=C/C(=O)O1` (some centres not stated), the GI50 in the assay on A549 NSCLC is 0.68 µM; in the assay with RXF 393 renal it was 0.0972 µM; in the assay on SW-620 colon it was 0.318 µM; in the assay with OVCAR-5 ovarian it was 0.44 µM; with KM12 colon, 0.198 µM; in the assay on SF-268 CNS, 0.484 µM. In addition, the GI50 in the assay with HOP-92 NSCLC was 1.69 µM; in the assay with COLO 205 colon, 0.246 µM; in the assay on SF-295 CNS it was 1.11 µM. Moreover, the TGI in the assay with A549 NSCLC was above 100 µM; with RXF 393 renal, 0.314 µM; with SW-620 colon it was 1.95 µM; with OVCAR-5 ovarian, 4.05 µM; in the assay on KM12 colon it was 1.31 µM; in the assay with SF-268 CNS it was above 100 µM. Also, the concentration for total growth inhibition (TGI) in the assay on HOP-92 NSCLC stood at 12.5 µM; in the assay on COLO 205 colon, 3.6 µM; in the assay on SF-295 CNS, 37.2 µM.
With `NC(CCSCC(F)(F)F)C(=O)O` (configuration not stated), the total growth inhibition concentration (TGI) in the assay with A549 NSCLC, in the assay with RXF 393 renal, with SW-620 colon, in the assay with OVCAR-5 ovarian, in the assay on KM12 colon and with SF-268 CNS was above 100 µM each time. Moreover, the total growth inhibition concentration (TGI) with HOP-92 NSCLC, in the assay on COLO 205 colon and in the assay on SF-295 CNS was above 100 µM in each case.
Regarding `O=C(CCc1nc(=S)[nH][nH]1)Nc1cc(Cl)ccc1Cl`, the TGI in the assay on A549 NSCLC, in the assay on SW-620 colon, in the assay with OVCAR-5 ovarian, in the assay on KM12 colon, in the assay on SF-268 CNS and with HOP-92 NSCLC was above 100 µM in each case. Besides, the TGI with COLO 205 colon and in the assay with SF-295 CNS was above 100 µM in each case.
